Experimental data published in ChEMBL document CHEMBL1201862, “PubChem BioAssay data set” (2004).
Structures can show the parent of a compound that is named as a salt. Activity calls are given as the source filed them.

Tests used:
[1] = biological target: T1, High affinity choline transporter 1 (Homo sapiens, UniProt Q9GZV3); experiment: human choline transporter blockers, potency – cell-based, 5-point CRC, membrane potential dye, dose response (AID 504840); type: functional
T1 sequence (Q9GZV3 whole entry): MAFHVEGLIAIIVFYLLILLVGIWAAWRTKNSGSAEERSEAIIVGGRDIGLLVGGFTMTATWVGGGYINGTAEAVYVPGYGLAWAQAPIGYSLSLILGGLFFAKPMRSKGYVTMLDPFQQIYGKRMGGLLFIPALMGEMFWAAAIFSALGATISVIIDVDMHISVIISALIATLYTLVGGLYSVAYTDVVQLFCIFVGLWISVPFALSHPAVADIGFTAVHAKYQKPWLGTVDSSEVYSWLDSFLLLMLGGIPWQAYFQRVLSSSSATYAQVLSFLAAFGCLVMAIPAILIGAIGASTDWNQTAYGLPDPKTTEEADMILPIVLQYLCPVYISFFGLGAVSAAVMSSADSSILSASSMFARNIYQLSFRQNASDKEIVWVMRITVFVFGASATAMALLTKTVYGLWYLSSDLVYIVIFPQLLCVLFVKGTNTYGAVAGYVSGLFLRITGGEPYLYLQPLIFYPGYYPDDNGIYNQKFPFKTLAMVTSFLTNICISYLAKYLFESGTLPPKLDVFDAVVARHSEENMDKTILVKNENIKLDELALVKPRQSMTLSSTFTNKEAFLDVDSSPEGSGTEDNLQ

[2] = biological target: NAD-dependent protein deacylase sirtuin-5, mitochondrial (Homo sapiens, UniProt Q9NXA8); experiment: sirtuin-5 deacylation blockers, concentration series – biochemical, fluorescence imaging, cherry-pick, set 5, dose response (AID 720591);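 further: desuccinylation of succinyl peptide AMC substrate read as fluorescence after trypsin release; potency of inhibitors that lower fluorescence and may act on trypsin instead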
[3] = reduction of Shn3 3'UTR-driven luciferase in osteoblasts – cell-based, Clone20 osteoblasts, firefly luciferase, cherry-picked, dose response (AID 624132); type: functional;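 further: firefly luciferase luminescence from reporter carrying the Shn3 3'UTR in osteoblasts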
[4] = viability loss in CEM21 cells – cell-based, CellTiter-Glo luminescence, cherry-picked, cytotoxicity control for viral fusion inhibitor project, dose response (AID 652042); type: functional;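 further: potency for signal decrease meaning cytotoxicity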
[5] = non-specific 3'UTR reporter inhibition in Clone20-Shn3RL – cell-based, Renilla luciferase, cherry-picked, counter-screen for Shn3 inhibitor project, dose response (AID 624133); type: functional
P388/ADR = experiment: cells; type: functional; details: Mus musculus
[6] = blockers of HIV-1 envelope-mediated cell-cell fusion – cherry-pick, dose response (AID 652057); type: functional, cell-based
[7] = loss of viability in HepG2 cells – cell-based, CellTiter-Glo, cherry-picked, cytotoxicity control for Shn3 inhibitor project, dose response (AID 624134); type: functional
Protein skinhead-1 = biological target: T2, Protein skinhead-1 (Caenorhabditis elegans, UniProt P34707); type: functional
T2 sequence (P34707 whole entry): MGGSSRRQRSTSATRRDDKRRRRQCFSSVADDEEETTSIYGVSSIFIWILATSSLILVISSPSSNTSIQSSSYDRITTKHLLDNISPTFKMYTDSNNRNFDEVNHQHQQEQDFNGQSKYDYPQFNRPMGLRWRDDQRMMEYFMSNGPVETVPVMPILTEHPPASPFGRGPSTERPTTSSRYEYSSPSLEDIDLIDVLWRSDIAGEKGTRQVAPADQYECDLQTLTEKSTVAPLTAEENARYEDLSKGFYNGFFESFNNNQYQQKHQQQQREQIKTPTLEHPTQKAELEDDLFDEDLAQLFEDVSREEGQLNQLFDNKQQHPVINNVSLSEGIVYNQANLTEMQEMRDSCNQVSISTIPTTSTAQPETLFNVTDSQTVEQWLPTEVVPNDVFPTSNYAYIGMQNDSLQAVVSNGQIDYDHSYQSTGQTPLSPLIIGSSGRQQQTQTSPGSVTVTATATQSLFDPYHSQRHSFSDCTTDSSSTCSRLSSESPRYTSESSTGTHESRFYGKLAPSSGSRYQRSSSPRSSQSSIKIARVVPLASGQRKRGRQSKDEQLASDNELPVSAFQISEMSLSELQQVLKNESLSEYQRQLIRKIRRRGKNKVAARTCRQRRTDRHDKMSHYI

P388 = experiment: cells; type: functional; details: Mus musculus
Paired box protein Pax-8 = Paired box protein Pax-8 (Homo sapiens, UniProt Q06710); experiment: PAX8 transcriptional activity inhibition in RMG-I – RMG-I cells, luciferase, cherry-pick, dose response (AID 687027); type: functional, cell-based;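 further: luciferase reporter driven by Pax8 target thyroperoxidase promoter measured by SteadyGlo luminescence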
SN12K1 = experiment: cells; type: functional; details: Homo sapiens
[8] = off-target signal loss in HeLa-CEM21 co-culture – HeLa F-luc CTL cells, cherry-picked, counter-screen for HIV-1 Env fusion inhibitor project, dose response (AID 652040); type: functional, cell-based;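 further: potency for signal decrease marking cytotoxic or nonspecific inhibition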
[9] = HIV-1 AD8 envelope cell-cell fusion blockers – cherry-pick, dose response (AID 652062); type: functional, cell-based;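 further: luciferase signal from cell-cell fusion driven by HIV-1 clade B AD8 Env; potency is for inhibitors of fusion seen as a drop in luminescence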
[10] = P. falciparum Dd2 growth inhibitors, dose response, SYBR Green, cherry-picked samples (AID 1159567); type: functional, cell-based
[11] = Reduced DLD-1 viability, concentration-response, CellTiter-Glo luminescence (AID 1117352); type: functional
[12] = HCT116 cell viability decrease, GSK3B pretreatment – CellTiter-Glo, IC50, dose response (AID 1117339); type: functional; details: HCT-116
[13] = cytotoxicity toward Colo320 cells – cell-based, CellTiter-Glo luminescence, IC50, dose response (AID 1117334); type: functional; details: COLO 320
[14] = cytotoxicity toward HCT116 cells – cell-based, CellTiter-Glo luminescence, IC50, dose response (AID 1117332); type: functional; details: HCT-116
[15] = cytotoxicity toward HT-29 cells – cell-based, CellTiter-Glo luminescence, IC50, dose response (AID 1117330); type: functional
[16] = CellTiter-Glo luminescence survival assay, SW480 colon tumor line, concentration-response curve, half-maximal inhibitory concentration (AID 1117338); type: functional
[17] = RKO cell viability reduction, dose response, CellTiter-Glo luminescence (AID 1117322); type: functional
[18] = SNU-C1 cell viability reduction, dose response, CellTiter-Glo luminescence (AID 1117323); type: functional, cell-based
Cytochrome P450 2D6 = Cytochrome P450 2D6 (Homo sapiens, UniProt P10635);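 further: CYP2D6 member of a cytochrome P450 panel assay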
Cytochrome P450 1A2 = biological target: T3, Cytochrome P450 1A2 (Homo sapiens, UniProt P05177);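 further: PubChem cytochrome P450 panel assay, CYP1A2 panel member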
T3 sequence (P05177 whole entry): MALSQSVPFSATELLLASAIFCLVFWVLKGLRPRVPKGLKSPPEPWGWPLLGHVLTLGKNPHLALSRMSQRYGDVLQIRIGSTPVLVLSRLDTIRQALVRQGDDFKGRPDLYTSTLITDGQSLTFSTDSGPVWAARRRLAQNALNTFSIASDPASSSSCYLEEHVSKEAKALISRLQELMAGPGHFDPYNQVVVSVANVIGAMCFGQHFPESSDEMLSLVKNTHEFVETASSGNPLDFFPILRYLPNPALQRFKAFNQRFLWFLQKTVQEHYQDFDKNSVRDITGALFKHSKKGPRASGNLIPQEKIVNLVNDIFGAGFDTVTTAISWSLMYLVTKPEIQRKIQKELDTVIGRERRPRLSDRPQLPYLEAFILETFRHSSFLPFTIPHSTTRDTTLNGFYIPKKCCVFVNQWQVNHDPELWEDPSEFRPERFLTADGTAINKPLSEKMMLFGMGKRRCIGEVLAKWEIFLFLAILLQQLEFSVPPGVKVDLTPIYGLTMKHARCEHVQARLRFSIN

Sequence of NAD-dependent protein deacylase sirtuin-5, mitochondrial (Q9NXA8 whole entry): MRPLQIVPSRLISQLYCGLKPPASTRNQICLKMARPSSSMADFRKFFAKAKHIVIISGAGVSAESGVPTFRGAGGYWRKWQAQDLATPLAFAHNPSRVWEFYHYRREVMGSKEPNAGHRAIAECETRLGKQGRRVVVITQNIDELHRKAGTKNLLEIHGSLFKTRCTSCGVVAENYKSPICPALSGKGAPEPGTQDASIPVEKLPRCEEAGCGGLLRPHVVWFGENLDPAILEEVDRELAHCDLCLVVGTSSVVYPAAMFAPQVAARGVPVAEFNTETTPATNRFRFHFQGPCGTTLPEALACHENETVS
Sequence of Cytochrome P450 2D6 (P10635 whole entry): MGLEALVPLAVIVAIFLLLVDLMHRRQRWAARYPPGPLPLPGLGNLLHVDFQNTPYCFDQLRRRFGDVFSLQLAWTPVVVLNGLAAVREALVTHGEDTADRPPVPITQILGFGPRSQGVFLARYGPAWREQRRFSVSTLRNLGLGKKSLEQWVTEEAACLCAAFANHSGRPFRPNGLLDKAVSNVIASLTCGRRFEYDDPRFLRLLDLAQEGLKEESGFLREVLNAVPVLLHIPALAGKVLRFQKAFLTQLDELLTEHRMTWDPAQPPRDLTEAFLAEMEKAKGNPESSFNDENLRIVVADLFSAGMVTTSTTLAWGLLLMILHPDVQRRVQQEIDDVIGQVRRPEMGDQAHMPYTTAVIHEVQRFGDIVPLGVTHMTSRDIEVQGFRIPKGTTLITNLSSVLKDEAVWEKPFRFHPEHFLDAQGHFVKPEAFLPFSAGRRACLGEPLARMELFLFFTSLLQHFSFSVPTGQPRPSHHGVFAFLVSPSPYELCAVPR
Sequence of Paired box protein Pax-8 (Q06710 whole entry): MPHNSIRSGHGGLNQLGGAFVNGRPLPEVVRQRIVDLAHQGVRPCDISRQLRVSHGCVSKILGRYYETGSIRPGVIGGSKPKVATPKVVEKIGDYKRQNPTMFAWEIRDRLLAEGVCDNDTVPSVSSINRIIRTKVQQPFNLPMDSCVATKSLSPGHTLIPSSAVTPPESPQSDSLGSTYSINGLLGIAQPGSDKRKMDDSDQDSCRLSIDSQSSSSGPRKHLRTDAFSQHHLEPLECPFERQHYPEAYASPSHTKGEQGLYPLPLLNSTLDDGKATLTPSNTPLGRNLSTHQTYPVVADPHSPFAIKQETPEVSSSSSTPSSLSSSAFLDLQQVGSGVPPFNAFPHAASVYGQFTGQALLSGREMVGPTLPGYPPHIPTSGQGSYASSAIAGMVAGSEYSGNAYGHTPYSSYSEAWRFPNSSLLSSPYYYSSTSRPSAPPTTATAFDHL

SMILES | IC50 [11] | IC50 [12] | IC50 [13] | IC50 [14] | IC50 [15] | IC50 [16] | IC50 [17] | IC50 [18] | further results
Cc1nn(-c2ccccc2)c2nc(O)cc(C(F)(F)F)c12 |  |  |  |  |  |  |  |  | IC50 [1]: 7.1 µM (active); AC50 [2]: > 30 µM (inactive)
CN(CC(=O)Nc1cccc(Cl)c1)S(=O)(=O)c1ccc2c(c1)n(C)c(=O)c(=O)n2C |  |  |  |  |  |  |  |  | AC50 [2]: > 30 µM (inactive)
O=C1NC2C(=CC(O)C(O)C2O)c2cc3c(cc21)OCO3 (centres undefined) |  |  |  |  |  |  |  |  | AC50 [3]: 2.22 µM (active); AC50 [4]: 0.738 µM (active); AC50 [5]: 3.82 µM (active); GI50 (P388/ADR): 0.0984 µM (active); AC50 [6]: 2.38 µM (active); AC50 [7]: 53.9 µM (active); IC50 (Protein skinhead-1): 64.3 µM (inactive); GI50 (P388): 0.115 µM (active); AC50 (Paired box protein Pax-8): 0.325 µM (active); GI50 (SN12K1): 0.234 µM (active); AC50 [8]: 3.78 µM (active)
C[C@@H]1CN([C@H](C)CO)S(=O)(=O)c2ccc(C#Cc3ccccc3)cc2O[C@H]1CN(C)C(=O)C1CC1 |  |  |  |  |  |  |  |  | AC50 [4]: 44.3 µM (active); AC50 [6]: 2.66 µM (active); AC50 [9]: 11.1 µM (active); AC50 [10]: 7.33 µM (active)
CN(C)[C@@H](CCOc1cccc2ccccc12)c1ccccc1 [DAPOXETINE] | > 20 µM (inactive) | 9.86 µM (inactive) | > 20 µM (inactive) | > 20 µM (inactive) | > 20 µM (inactive) | > 20 µM (inactive) | 8.11 µM (inactive) | 12.8 µM (inactive) | 
CC(=O)NC(=O)c1ccccc1O [SALACETAMIDE] | > 20 µM (inactive) | > 20 µM (inactive) | > 20 µM (inactive) | > 20 µM (inactive) | > 20 µM (inactive) | > 20 µM (inactive) | > 20 µM (inactive) | > 20 µM (inactive) | 
CN1CCN(CCCN2c3ccccc3Sc3ccc(S(=O)(=O)N(C)C)cc32)CC1 [THIOPROPERAZINE MESYLATE] | 14.6 µM (inactive) | > 20 µM (inactive) | 8.17 µM (inactive) | > 20 µM (inactive) | > 20 µM (inactive) | > 20 µM (inactive) | 5.99 µM (inactive) | 2.12 µM (active) | AC50 (Cytochrome P450 2D6): 6.31 µM (inconclusive); AC50 (Cytochrome P450 1A2): 12.6 µM (inconclusive)
